Bridge positions count the residues as written; N and C are the ends. Square brackets hold non-standard residues; d marks the D form. Peptide text beside a SMILES is read from it. * marks the point of attachment. hPhe(3-Cl-4-CF3) = N[C@@H](CCc1ccc(C(F)(F)F)c(Cl)c1)C(=O)O; NMePhe(4-Cl) = CN[C@@H](Cc1ccc(Cl)cc1)C(=O)O; NMePhe(2-Me) = CN[C@@H](Cc1ccccc1C)C(=O)O; Phe(3-I) = N[C@@H](Cc1cccc(I)c1)C(=O)O; NMe3Pal = CN[C@@H](Cc1cccnc1)C(=O)O; NMeY = CN[C@@H](Cc1ccc(O)cc1)C(=O)O; NMeCha = CN[C@@H](CC1CCCCC1)C(=O)O; Gly(N-(CH2)2OEt) = CCOCCNCC(=O)O; NMeCba = CN[C@@H](CC1CCC1)C(=O)O; NMeChg = CN[C@H](C(=O)O)C1CCCCC1; NMeI = CC[C@H](C)[C@H](NC)C(=O)O; NMeD = CN[C@@H](CC(=O)O)C(=O)O; NMeL = CN[C@@H](CC(C)C)C(=O)O; Cba = N[C@@H](CC1CCC1)C(=O)O; NMeV = CN[C@H](C(=O)O)C(C)C; d(β3hA) = C[C@@H](N)CC(=O)O; Pip = O=C(O)[C@@H]1CCCCN1; NMeA = CN[C@@H](C)C(=O)O; NMeAib = CNC(C)(C)C(=O)O; Nle = CCCC[C@H](N)C(=O)O; Piperidide = C1CCN(*)CC1; Ac5c = NC1(C(=O)O)CCCC1; Aze = O=C(O)[C@@H]1CCN1; Nva = CCC[C@H](N)C(=O)O; CF3 = FC(F)(F)*; Sar = CNCC(=O)O
Tested on: Human pancreatic cancer cell line AsPC-1 (G12D mutation Kras)
Assay: AsPC-1 cell growth inhibition (AsPC-1 CGI)
Type: cell-based
Conditions: read-out: AsPC-1 cell growth inhibition, 50% growth inhibitory concentration (IC50 value); 96 hours, CellTiter-Glo, values classified in ranges
Description: Test compounds were serially dilated with dimethyl sulfoxide, and 200 nL was then dispensed to a U-bottom 96-well plate using Labcyte Echo. […] The cell suspension was dispensed to a. plate containing a test compound at 100 μL per well and incubated at 37° C. in a 5% carbon dioxide gas incubator. 96 hours later, 80 μL of CellTiter-Glo (Promega) was added to each well and fluorescence was measured.

Compound	IC50 [nM]
CC[C@H](C)[C@@H]1NC(=O)[C@H](CC(C)C)N(C)C(=O)C[C@@H](C)NC(=O)[C@H](CC2CCC2)N(C)C(=O)C2(CCCC2)NC(=O)[C@@H]2CCCN2C(=O)[C@H](CCc2ccc(C(F)(F)F)c(Cl)c2)NC(=O)CN(C)C(=O)[C@H](CC2CCCCC2)N(C)C(=O)CN(C)C(=O)CN(C)C1=O [Compound 59] (cyclo([Ac5c][NMeCba][d(β3hA)][NMeL]I[Sar][Sar][NMeCha][Sar][hPhe(3-Cl-4-CF3)]P))	> 500
CC[C@H](C)[C@@H]1NC(=O)[C@H](C)N(C)C(=O)C[C@@H](C(=O)N2CCCCC2)N(C)C(=O)[C@H](C2CCCCC2)N(C)C(=O)C2(CCCC2)NC(=O)[C@H](Cc2cccnc2)N(C)C(=O)[C@H](CCc2ccc(C(F)(F)F)c(Cl)c2)NC(=O)CN(C)C(=O)[C@H](CC2CCCCC2)N(C)C(=O)[C@@H]2CCCN2C(=O)CN(C)C1=O [Compound 433] ([NMeA]I[Sar]P[NMeCha][Sar][hPhe(3-Cl-4-CF3)][NMe3Pal][Ac5c][NMeChg][NMeD]-Piperidide; lactam N-11)	> 500
CCCC[C@@H]1NC(=O)[C@H](Cc2cccc(I)c2)NC(=O)CN(C)C(=O)[C@H](Cc2ccc(Cl)cc2)N(C)C(=O)CN(C)C(=O)CN(C)C(=O)[C@H]([C@@H](C)CC)NC(=O)[C@H](CC(C)C)N(C)C(=O)C[C@@H](C(=O)N2CCCCC2)N(C)C(=O)[C@H](CC(C)C)NC(=O)[C@H](Cc2ccc(OC(F)(F)F)cc2)N(C)C1=O [Compound 819] ([NMeL]I[Sar][Sar][NMePhe(4-Cl)][Sar][Phe(3-I)][Nle][NMeY](CF3)L[NMeD]-Piperidide; lactam N-11)	> 500
CC(C)C[C@H]1C(=O)N[C@@H](CC2CCC2)C(=O)N(C)CC(=O)N(C)CC(=O)N(C)[C@@H](CC2CCCCC2)C(=O)N(C)CC(=O)N[C@@H](CCc2ccc(C(F)(F)F)c(Cl)c2)C(=O)N2CCC[C@H]2C(=O)NC2(CCCC2)C(=O)N(C)[C@@H](C2CCCCC2)C(=O)N(C)[C@H](C(=O)N2CCCCC2)CC(=O)N1C [Compound 1759] ([NMeL][Cba][Sar][Sar][NMeCha][Sar][hPhe(3-Cl-4-CF3)]P[Ac5c][NMeChg][NMeD]-Piperidide; lactam N-11)	> 500
CCCC[C@@H]1NC(=O)[C@H](CCc2ccc(C(F)(F)F)c(Cl)c2)NC(=O)CN(C)C(=O)[C@H](Cc2ccc(Cl)cc2)N(C)C(=O)[C@@H]2CCN2C(=O)CN(C)C(=O)[C@H]([C@@H](C)CC)NC(=O)[C@@H]2CCCCN2C(=O)C[C@@H](C(=O)N2CCCCC2)N(C)C(=O)[C@H](CC(C)C)NC(=O)C(C)(C)N(C)C1=O [Compound 352] ([Pip]I[Sar][Aze][NMePhe(4-Cl)][Sar][hPhe(3-Cl-4-CF3)][Nle][NMeAib]L[NMeD]-Piperidide; lactam N-11)	> 500
CC[C@H](C)[C@@H]1NC(=O)[C@H](CC(C)C)N(C)C(=O)C[C@@H](C)NC(=O)[C@H](C(C)C)N(C)C(=O)C2(CCCC2)NC(=O)[C@@H]2CCCN2C(=O)[C@H](CCc2ccc(C(F)(F)F)c(Cl)c2)NC(=O)CN(C)C(=O)[C@H](Cc2ccccc2C)N(C)C(=O)CN(C)C(=O)CN(C)C1=O [Compound 1614] (cyclo([Ac5c][NMeV][d(β3hA)][NMeL]I[Sar][Sar][NMePhe(2-Me)][Sar][hPhe(3-Cl-4-CF3)]P))	> 500
CC[C@H](C)[C@@H]1NC(=O)[C@H](CC(C)C)N(C)C(=O)C[C@@H](C(=O)N(C)C)N(C)C(=O)[C@H]([C@@H](C)CC)N(C)C(=O)C2(CCCC2)NC(=O)[C@@H]2CCCN2C(=O)[C@H](CCc2ccc(C(F)(F)F)c(Cl)c2)NC(=O)CN(C)C(=O)[C@H](CC2CCCCC2)N(C)C(=O)[C@@H]2CCN2C(=O)[C@H](C)N(C)C1=O [Compound 1858] ([NMeL]I[NMeA][Aze][NMeCha][Sar][hPhe(3-Cl-4-CF3)]P[Ac5c][NMeI][NMeD]-NMe2; lactam N-11)	≤ 20
CCOCCN1CC(=O)N(C)CC(=O)N(C)[C@@H](CC2CCCCC2)C(=O)N(C)CC(=O)N[C@@H](CCc2ccc(C(F)(F)F)c(Cl)c2)C(=O)N2CCC[C@H]2C(=O)NC2(CCCC2)C(=O)N(C)[C@@H](C(C)C)C(=O)N[C@H](C)CC(=O)N(C)[C@@H](CC(C)C)C(=O)N[C@@H]([C@@H](C)CC)C1=O [Compound 329] (cyclo([Ac5c][NMeV][d(β3hA)][NMeL]I[Gly(N-(CH2)2OEt)][Sar][NMeCha][Sar][hPhe(3-Cl-4-CF3)]P))	> 500
CCC[C@@H]1NC(=O)[C@H](CC(C)C)N(C)C(=O)C[C@@H](C(=O)N2CCCCC2)N(C)C(=O)[C@H](C2CCCCC2)N(C)C(=O)C2(CCCC2)NC(=O)[C@@H]2CCCN2C(=O)[C@H](CCc2ccc(C(F)(F)F)c(Cl)c2)NC(=O)CN(C)C(=O)[C@H](CC2CCCCC2)N(C)C(=O)CN(C)C(=O)CN(C)C1=O [Compound 495] ([NMeL][Nva][Sar][Sar][NMeCha][Sar][hPhe(3-Cl-4-CF3)]P[Ac5c][NMeChg][NMeD]-Piperidide; lactam N-11)	> 500
